For one data set, the target named is CFTR (Homo sapiens, UniProt P13569). Put plainly: Membrane Potential Dye, Enteroid Assay A. The format is cell-based. As to conditions: for pEC50: read-out: Ent. A EC50. Put shortly: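 Enteroid cells were loaded with methyl oxonol membrane potential dye (plus CaCCinh-A01 and Chicago Sky Blue) for 25 min at room temperature. Chloride transport was started by switching to chloride-free gluconate stimulation solution, with fluorescence read for 15 min. Activity was expressed as % of a triple-combination CFTR modulator control (3 μM, 3 μM, 300 nM acute).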
Chain of CFTR (P13569 with tags, fused parts or gaps DEL508-508): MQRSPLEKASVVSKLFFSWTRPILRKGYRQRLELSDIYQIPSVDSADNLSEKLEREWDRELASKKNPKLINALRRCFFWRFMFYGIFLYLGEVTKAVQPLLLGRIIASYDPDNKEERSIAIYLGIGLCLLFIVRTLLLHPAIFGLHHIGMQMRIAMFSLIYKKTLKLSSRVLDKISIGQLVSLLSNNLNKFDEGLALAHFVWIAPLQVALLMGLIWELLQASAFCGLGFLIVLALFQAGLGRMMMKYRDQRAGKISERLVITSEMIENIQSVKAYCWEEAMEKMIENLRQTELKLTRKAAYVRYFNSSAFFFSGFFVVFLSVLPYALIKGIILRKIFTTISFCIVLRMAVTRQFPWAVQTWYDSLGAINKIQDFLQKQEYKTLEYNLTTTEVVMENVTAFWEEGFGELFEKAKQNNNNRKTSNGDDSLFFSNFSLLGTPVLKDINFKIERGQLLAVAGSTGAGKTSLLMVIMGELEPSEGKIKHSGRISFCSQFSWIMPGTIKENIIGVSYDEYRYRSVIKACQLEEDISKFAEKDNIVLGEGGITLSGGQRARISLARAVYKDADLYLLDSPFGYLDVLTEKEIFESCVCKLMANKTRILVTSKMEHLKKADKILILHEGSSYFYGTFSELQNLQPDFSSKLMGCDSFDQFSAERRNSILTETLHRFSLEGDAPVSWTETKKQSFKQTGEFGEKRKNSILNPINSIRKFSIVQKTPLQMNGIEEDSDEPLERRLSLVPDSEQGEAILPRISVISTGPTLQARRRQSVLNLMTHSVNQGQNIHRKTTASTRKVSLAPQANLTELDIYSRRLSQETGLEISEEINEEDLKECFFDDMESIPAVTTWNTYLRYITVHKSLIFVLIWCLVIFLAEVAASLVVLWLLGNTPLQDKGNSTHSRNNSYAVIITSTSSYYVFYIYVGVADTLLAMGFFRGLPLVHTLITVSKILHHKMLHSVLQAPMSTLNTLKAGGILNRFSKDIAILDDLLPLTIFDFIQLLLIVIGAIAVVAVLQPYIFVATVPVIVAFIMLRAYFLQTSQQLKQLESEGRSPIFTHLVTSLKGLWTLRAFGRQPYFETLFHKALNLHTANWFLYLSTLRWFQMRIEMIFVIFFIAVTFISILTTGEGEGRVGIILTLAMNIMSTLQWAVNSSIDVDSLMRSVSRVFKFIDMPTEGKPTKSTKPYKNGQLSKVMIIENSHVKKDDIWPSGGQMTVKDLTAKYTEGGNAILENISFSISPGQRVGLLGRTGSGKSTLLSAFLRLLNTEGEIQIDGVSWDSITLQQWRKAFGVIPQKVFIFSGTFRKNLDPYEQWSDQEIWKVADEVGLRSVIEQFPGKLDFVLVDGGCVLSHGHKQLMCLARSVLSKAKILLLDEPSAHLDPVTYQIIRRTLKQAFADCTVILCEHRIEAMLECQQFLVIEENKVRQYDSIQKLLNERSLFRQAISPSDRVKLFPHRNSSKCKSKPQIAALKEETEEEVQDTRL

pEC50: −log10 of the molar value. Read-outs that look alike come from different tables or passages of the source.

The values below come from patent US20230382924A1, “MODULATORS OF CYSTIC FIBROSIS TRANSMEMBRANE CONDUCTANCE REGULATOR” (VERTEX PHARMACEUTICALS INCORPORATED, priority 2020, published 2023).

In turn, `Cc1cccc(C)c1-c1cc2nc(n1)NS(=O)(=O)c1cccc(c1)C(=O)NCC(c1ccc(C(C)(C)C)cc1)O2` (centres unmarked) [Compound 3, 10-(4-tert-butylphenyl)-6-(2,6-dimethylphenyl)-2,2-dioxo-9-oxa-2λ^6-thia-3,5,12,19-tetrazatricyclo[12.3.1.14,8]nonadeca-1(18),4(19),5,7,14,16-hexaen-13-one] registered a ring closure, yield after HPLC (from Cc1cccc(C)c1-c1cc(Cl)nc(NS(=O)(=O)c2cccc(C(=O)NCC(O)c3ccc(C(C)(C)C)cc3)c2)n1, snar bond, 13-membered ring, NaH, NMP, 8.5 mM, 90.0 °C, 2.5 h) of 12%. In addition, on CFTR (Table 8), the “Ent. A Max Activity” value is listed as “+++ (+++ is >60%)” and the pEC50 was above 6.00.
For the setting “from Cc1cccc(C)c1-c1cc(OC(CN)c2ccc(OCC3(C(F)(F)F)CC3)cc2)nc(NS(=O)(=O)c2cccc(C(=O)O)c2)n1, amide bond, 13-membered ring, HATU/DIEA, DMF, 48.7 mM, 25.0 °C, 72.0 h”, `Cc1cccc(C)c1-c1cc2nc(n1)NS(=O)(=O)c1cccc(c1)C(=O)NCC(c1ccc(OCC3(C(F)(F)F)CC3)cc1)O2` (centres unmarked) [Compound 33, 6-(2,6-Dimethylphenyl)-2,2-dioxo-10-[4-[[1-(trifluoromethyl)cyclopropyl]methoxy]phenyl]-9-oxa-2λ^6-thia-3,5,12,19-tetrazatricyclo[12.3.1.14,8]nonadeca-1(18),4(19),5,7,14,16-hexaen-13-one] yielded a ring closure, yield after HPLC of 10%. Besides, at CFTR (Table 8), the “Ent. A Max Activity” value was “+++ (+++ is >60%)” and the pEC50 was above 6.00.
The compound `COC[C@H]1NC(=O)c2cccc(c2)S(=O)(=O)Nc2nc(cc(-c3c(C)cccc3C)n2)O[C@@H]1c1ccc(C(C)(C)C)cc1` (single isomer, unassigned) [Compound 44] gave a ring closure, yield after HPLC (from COC[C@@H](N)[C@H](Oc1cc(-c2c(C)cccc2C)nc(NS(=O)(=O)c2cccc(C(=O)O)c2)n1)c1ccc(C(C)(C)C)cc1, amide bond, 13-membered ring, HATU/DIEA, DMF, 162.0 mM, 0.5 h) of 8%. For the same compound, on CFTR (Table 9), the “Ent. A Max Activity” value is listed as “+++ (+++ is >60%)” and the pEC50 is above 6.00.
Turning to `Cc1cccc(C)c1-c1cc2nc(n1)NS(=O)(=O)c1cccc(c1)C(=O)NCC(c1cccc(Cl)c1)O2` (centres unmarked) [Compound 32, 10-(3-Chlorophenyl)-6-(2,6-dimethylphenyl)-2,2-dioxo-9-oxa-2λ^6-thia-3,5,12,19-tetrazatricyclo[12.3.1.14,8]nonadeca-1(18),4(19),5,7,14,16-hexaen-13-one], the ring closure, yield after HPLC (from Cc1cccc(C)c1-c1cc(OC(CN)c2cccc(Cl)c2)nc(NS(=O)(=O)c2cccc(C(=O)O)c2)n1, amide bond, 13-membered ring, HATU/DIEA, DMF, 41.6 mM, 25.0 °C, 1.0 h) worked out at 27%. For the same compound, at CFTR (Table 8), the “Ent. A Max Activity” value is on record as “+++ (+++ is >60%)” and the pEC50 is above 6.00.
`Cc1cccc(C)c1-c1cc2nc(n1)NS(=O)(=O)c1cccc(c1)C(=O)N[C@H](C)[C@H](c1ccc(C(F)(F)F)cc1)O2` [Compound 42, (10S,11R)-6-(2,6-dimethylphenyl)-11-methyl-2,2-dioxo-10-[4-(trifluoromethyl)phenyl]-9-oxa-2λ^6-thia-3,5,12,19-tetrazatricyclo[12.3.1.14,8]nonadeca-1(18),4(19),5,7,14,16-hexaen-13-one] showed a ring closure, yield after HPLC (from Cc1cccc(C)c1-c1cc(O[C@@H](c2ccc(C(F)(F)F)cc2)[C@@H](C)N)nc(NS(=O)(=O)c2cccc(C(=O)O)c2)n1, amide bond, 13-membered ring, HATU/NaOtBu, DMF/THF, 96.3 mM, 25.0 °C, 0.33 h, 2 steps) of 4%. On CFTR (Table 9), the “Ent. A Max Activity” value was “++ (++ is 30-60%)” and the pEC50 was above 6.00.
Take `Cc1cccc(C)c1-c1cc2nc(n1)NS(=O)(=O)c1cccc(c1)C(=O)NCCC(c1ccc(C(C)(C)C)cc1)O2` (centres unmarked) [Compound 55, 10-(4-tert-Butylphenyl)-6-(2,6-dimethylphenyl)-2,2-dioxo-9-oxa-2λ^6-thia-3,5,13,20-tetrazatricyclo[13.3.1.14,8]icosa-1(19),4(20),5,7,15,17-hexaen-14-one]: the ring closure, yield after HPLC (from Cc1cccc(C)c1-c1cc(OC(CCN)c2ccc(C(C)(C)C)cc2)nc(NS(=O)(=O)c2cccc(C(=O)O)c2)n1, amide bond, 14-membered ring, HATU/TEA, DMF, 204.0 mM, 50.0 °C, 0.25 h) is 18%. Moreover, at CFTR (Table 9), the “Ent. A Max Activity” value is given as “++ (++ is 30-60%)” and the pEC50 was 5.52 to 6.00.
In the case of `Cc1cccc(C)c1-c1cc2nc(n1)NS(=O)(=O)c1cccc(c1)C(=O)NCC(C(=O)NCCC(C)(C)C)O2` (centres unmarked) [Compound 30, N-(3,3-Dimethylbutyl)-6-(2,6-dimethylphenyl)-2,2,13-trioxo-9-oxa-2λ^6-thia-3,5,12,19-tetrazatricyclo[12.3.1.14,8]nonadeca-1(18),4(19),5,7,14,16-hexaene-10-carboxamide], the ring closure, yield after HPLC (from Cc1cccc(C)c1-c1cc(OC(CN)C(=O)NCCC(C)(C)C)nc(NS(=O)(=O)c2cccc(C(=O)O)c2)n1, amide bond, 13-membered ring, HATU/DIEA, DMF, 30.2 mM, 25.0 °C, 0.25 h) was 28%. The pEC50 on CFTR (Table 8) was 4.52 to 5.52.
`Cc1cccc(C)c1-c1cc2nc(n1)NS(=O)(=O)c1cccc(c1)C(=O)NCC(c1ccccc1Cl)O2` (centres unmarked) [Compound 31, 10-(2-Chlorophenyl)-6-(2,6-dimethylphenyl)-2,2-dioxo-9-oxa-2λ^6-thia-3,5,12,19-tetrazatricyclo[12.3.1.14,8]nonadeca-1(18),4(19),5,7,14,16-hexaen-13-one] gave a ring closure, yield after HPLC (from Cc1cccc(C)c1-c1cc(OC(CN)c2ccccc2Cl)nc(NS(=O)(=O)c2cccc(C(=O)O)c2)n1, amide bond, 13-membered ring, HATU/DIEA, DMF, 42.4 mM, 25.0 °C, 1.0 h) of 49%. In addition, at CFTR (Table 8), the “Ent. A Max Activity” value is recorded as “+++ (+++ is >60%)” and the pEC50 is above 6.00.
Take `Cc1cccc(C)c1-c1cc2nc(n1)NS(=O)(=O)c1cccc(c1)C(=O)NCC(c1ccc(C(C)(C)C)cn1)O2` (centres unmarked) [Compound 6, 10-(5-tert-Butyl-2-pyridyl)-6-(2,6-dimethylphenyl)-2,2-dioxo-9-oxa-2λ^6-thia-3,5,12,19-tetrazatricyclo[12.3.1.14,8]nonadeca-1(18),4(19),5,7,14,16-hexaen-13-one]: the ring closure, yield after HPLC (from Cc1cccc(C)c1-c1cc(OC(CN)c2ccc(C(C)(C)C)cn2)nc(NS(=O)(=O)c2cccc(C(=O)O)c2)n1, amide bond, 13-membered ring, HATU/DIEA, DMF, 40.9 mM, 25.0 °C, 0.25 h) is 33%. For the same compound, on CFTR (Table 8), the pEC50 is above 6.00.
`Cc1cccc(C)c1-c1cc2nc(n1)NS(=O)(=O)c1cccc(c1)C(=O)NCC(C1CCOCC1)O2` (centres unmarked) [Compound 34, 6-(2,6-Dimethylphenyl)-2,2-dioxo-10-tetrahydropyran-4-yl-9-oxa-2λ^6-thia-3,5,12,19-tetrazatricyclo[12.3.1.14,8]nonadeca-1(18),4(19),5,7,14,16-hexaen-13-one]: the ring closure, yield after HPLC (from Cc1cccc(C)c1-c1cc(OC(CN)C2CCOCC2)nc(NS(=O)(=O)c2cccc(C(=O)O)c2)n1, amide bond, 13-membered ring, HATU/DIEA, DMF, 66.2 mM, 25.0 °C, 0.25 h) was determined as 25%. Further, the “Ent. A Max Activity” value at CFTR (Table 8) was “+ (+ is <30%)”.
For the setting “from Cc1cccc(C)c1-c1cc(O[C@H](c2ccc(C(C)(C)C)cc2)[C@H](C)N)nc(NS(=O)(=O)c2cccc(C(=O)O)c2)n1, amide bond, 13-membered ring, HATU/NaOtBu, DMF/THF, 53.4 mM, 25.0 °C, 0.1 h, 2 steps”, `Cc1cccc(C)c1-c1cc2nc(n1)NS(=O)(=O)c1cccc(c1)C(=O)N[C@@H](C)[C@@H](c1ccc(C(C)(C)C)cc1)O2` [Compound 43, (10R,11S)-10-(4-tert-butylphenyl)-6-(2,6-dimethylphenyl)-11-methyl-2,2-dioxo-9-oxa-2λ^6-thia-3,5,12,19-tetrazatricyclo[12.3.1.14,8]nonadeca-1(18),4(19),5,7,14,16-hexaen-13-one] yielded a ring closure, yield after HPLC of 13%. Besides, at CFTR (Table 9), the “Ent. A Max Activity” value is on record as “+++ (+++ is >60%)” and the pEC50 is above 6.00.
`Cc1cccc(C)c1-c1cc2nc(n1)NS(=O)(=O)N1CCCC(C1)C(=O)N[C@H](CC1CCCCC1)CO2` (stereo partly drawn) [Compound 73, (11R)-11-(Cyclohexylmethyl)-6-(2,6-dimethylphenyl)-2,2-dioxo-9-oxa-2λ^6-thia-1,3,5,12,19-pentazatricyclo[12.3.1.14,8]nonadeca-4(19),5,7-trien-13-one] yielded a ring closure, yield after HPLC (from Cc1cccc(C)c1-c1cc(OC[C@H](N)CC2CCCCC2)nc(NS(=O)(=O)N2CCCC(C(=O)O)C2)n1, amide bond, 13-membered ring, HATU/DIEA, DMF, 19.2 mM, 3.0 h) of 19%. In addition, the “Ent. A Max Activity” value at CFTR (Table 8) is listed as “+ (+ is <30%)”.
Compound `Cc1cccc(COCc2ccccc2)c1-c1cc2nc(n1)NS(=O)(=O)c1cccc(c1)C(=O)N[C@H](CC(C)C)CO2` [Compound 106, (11R)-6-[2-(benzyloxymethyl)-6-methyl-phenyl]-11-isobutyl-2,2-dioxo-9-oxa-2λ^6-thia-3,5,12,19-tetrazatricyclo[12.3.1.14,8]nonadeca-1(18),4(19),5,7,14,16-hexaen-13-one] gave a ring closure, yield after HPLC (from Cc1cccc(COCc2ccccc2)c1-c1cc(OC[C@H](N)CC(C)C)nc(NS(=O)(=O)c2cccc(C(=O)O)c2)n1, amide bond, 13-membered ring, HATU/DIEA, DMF, 48.7 mM, 25.0 °C, 0.5 h) of 30%. On CFTR (Table 9), the “Ent. A Max Activity” value is reported as “+++ (+++ is >60%)” and the pEC50 is above 6.00.
For the setting “from Cc1cccc(C)c1-c1cc(O[C@H](c2ccc(C(F)(F)F)cc2)[C@@H](C)N)nc(NS(=O)(=O)c2cccc(C(=O)O)c2)n1, amide bond, 13-membered ring, HATU/NaOtBu, DMF/THF, 96.3 mM, 25.0 °C, 0.33 h, 2 steps”, `Cc1cccc(C)c1-c1cc2nc(n1)NS(=O)(=O)c1cccc(c1)C(=O)N[C@H](C)[C@@H](c1ccc(C(F)(F)F)cc1)O2` [Compound 41, (10R,11R)-6-(2,6-Dimethylphenyl)-11-methyl-2,2-dioxo-10-[4-(trifluoromethyl)phenyl]-9-oxa-2λ^6-thia-3,5,12,19-tetrazatricyclo[12.3.1.14,8]nonadeca-1(18),4(19),5,7,14,16-hexaen-13-one] came in with a ring closure, yield after HPLC of 10%. Besides, at CFTR (Table 9), the “Ent. A Max Activity” value is “++ (++ is 30-60%)” and the pEC50 is above 6.00.
